Row | melting point | SMILES
1 | 128 °C | O=[N+]([O-])c1ccccc1NC(CO)c1c(Cl)cccc1Cl (centres undefined)
2 | 201 °C | COc1ncc(NS(=O)(=O)c2cccc3c(N(C)C)cccc23)c(OC)n1
3 | 127 to 128 °C | Cc1c(-c2cccn2C)c(N2CC[C@H](N(C)C)C2)c2oc(C3CC3)nc2c1C#N
4 | 121 to 131 °C | C=CCn1c(Oc2cnn(-c3c(Cl)cc(C(F)(F)F)cc3Cl)n2)nc(C#N)c1C#N
5 | 200 to 201 °C | CC(C)Cn1c(C(=O)O)c(-c2ccc(Cl)cc2)c2cc(OCc3ccccc3)ccc2c1=O
6 | 134 to 136 °C | CCCOc1ccccc1-c1cccc(=O)[nH]1
7 | 182 to 184 °C | CCOC(=O)Cc1ccc2c(c1)NC(NC(C)C)=NS2(=O)=O
8 | 158 to 159 °C | CCCOc1ccc(S(=O)(=O)N2CCN(CCO)CC2)cc1-c1nc2c(CCC)nn(C)c2c(=O)[nH]1
9 | 91 to 93 °C | CCc1nn2c(-c3ccc(Cl)cc3Cl)nc(C)nc2c1C(CC)CC
10 | 253 to 254 °C | O=S1(=O)N=CN(C2CC2)c2cc(Br)cc(C(F)(F)F)c21
11 | 190 °C | COc1ccc(I)c2c1CC(NC(C)=O)CC2 (centres undefined)
12 | 166 to 167 °C | O=c1c2ccccc2sc2ccc(N3CCOCC3)cc12
13 | 78 °C | Cc1cccc(C2CCCN2S(=O)(=O)c2ccc(Cl)cc2)c1 (racemic)
14 | 57 to 58 °C | COc1ccc(-c2oncc2CO)cc1
15 | 241 to 242 °C | O=C(O)c1cc2ccccc2c(=O)o1
16 | 300 to 302 °C | Cc1csc(-c2cc(-c3ccncc3)c3n(c2=O)CCCc2ccncc2-3)n1
17 | 258 to 260 °C | O=c1[nH]ncc2[nH]c(-c3ccc(OC(F)F)c(OCC4CC4)c3)c(Cl)c12
18 | 214 to 219 °C | COCCOc1ccc2c(C3C(=O)Nc4ccc(C#N)cc43)nccc2c1 (centres undefined)
19 | 55 °C | Cc1cc(C(=O)CCc2cc(-c3ccc(C(F)(F)F)cc3)nn2Cc2ccccc2)ccc1OC(C)(C)C(=O)O
20 | 129 to 131 °C | COc1cccc(CN2CCC3(CC2)CSC2=C(O3)c3ccccc3C(=O)C2=O)c1
21 | 138 °C | CCCCCNS(=O)(=O)NC(=O)/C(C)=C/c1ccc(OC(C)C)cc1Oc1ncc(C(F)(F)F)cc1Cl
22 | 105 to 106 °C | Cc1nccn1-c1nc(-c2ccc(Cl)cc2)c(CCCN2C(=O)CN(C)C2=O)o1
23 | 55 to 56 °C | COC(=O)c1ccc(OCC2CCCN(C)C2)cc1 (centres undefined)
24 | 226 to 228 °C | COC1=C(OC)C(=O)c2cc(NC(C)=O)ccc2C1=O
25 | 194 °C | N=c1sc2cc(OC(F)(F)F)ccc2n1CCS(=O)c1ccncc1 (centres undefined)
26 | 140 to 143 °C | O=C1C=C(c2c(Br)cc(Br)cc2Br)C(=O)N1
27 | 241 to 243 °C | COn1c(-c2ccccc2)nc2c(N)nc3ccccc3c21
28 | 104 to 105 °C | N=C(N)c1c[nH]c2ccc(CCNC(=O)c3ccc(-c4ccnc(OCCN5CCCC5)n4)cc3)cc12

The remaining lines, values behind:

Row | SMILES | melting point
29 | Cc1ccc(C(=O)Cn2c(-n3ncnc3N)nc3ccccc32)cc1C | 190 to 193 °C
30 | Cc1cc(O)c(C)c(C)c1N | 153 to 154 °C
31 | Cc1cc2nc(NC3=NCCN3)[nH]c2cc1C | 266 °C
32 | ON=C(CCC1CCN(Cc2ccccc2)CC1)c1ccc(N2CCCC2)cc1 | 153 to 158 °C
33 | CNC(=C[N+](=O)[O-])N(C)Cc1ccc(Cl)nc1 | 103 to 104 °C
34 | Cc1nc(Sc2ccc(C(=O)O)cn2)sc1CC(=O)O | 226 to 228 °C
35 | CCCCCCCNC(=O)Nc1ccc(-n2ccnc2)cc1C(=O)NCC1CCN(C(c2ccccc2)c2ccccc2)CC1 | 183 to 185 °C
36 | CCOC(=O)c1c[nH]c(=O)s1 | 127 °C
37 | CCn1c(=O)n(O)c(=O)c2cc(F)c(N3CCOCC3)cc21 | 162 to 163 °C
38 | COC(=O)c1c(O)c2c([nH]c1=O)CCCCC2 | > 255 °C
39 | CC(=O)Nc1ccc(/C(=C/N2CCOCC2)C(=S)N2CCOCC2)cc1 | 145 to 147 °C
40 | NCCc1c[nH]c2ccc3c(=O)n(CCc4ccccc4)ccc3c12 | 162 to 166 °C
41 | CN1[C@@H](c2cccc(Br)c2)c2ccccc2S1(=O)=O | 157 °C
42 | COCOc1ccc(C(=O)CI)c(OCc2ccccc2)c1 | 66 to 68 °C
43 | CN(C(C)(C)C)S(=O)(=O)CC(N)=O | 105 to 109 °C
44 | CCOC(=O)COC1CCC2C3CCC4N=CCCC4(C)C3CCC12C (centres undefined) | 170 to 172 °C
45 | CC(C)(C)OC(=O)COc1ccc(NC(=O)NC(=O)c2ccc(C#N)nc2)cc1 | 220 to 222 °C
46 | CC1CCCN(S(=O)(=O)c2cc(Cl)cc(C(=O)O)c2)C1 (centres undefined) | 177 to 179 °C
47 | C=C(C)Cn1c(N)cc(=O)[nH]c1=O | 267 to 269 °C
48 | Cc1oc(-c2ccccc2)nc1COc1ccc(OCc2oc(-c3ccccc3)nc2CO)cc1 | 143 to 144 °C
49 | CC(=O)OCc1ncc2n1-c1ccc(Cl)cc1C(c1ccccc1F)=NC2 | 151 to 152 °C
50 | CCc1ccccc1/C(N)=C1\Sc2ccccc2C1=O | 132 to 133 °C
51 | CCCCCC(C(=O)O)c1cccc(Oc2ccccc2C)c1O (centres undefined) | 113 to 114 °C

Row | SMILES | melting point
52 | CC1(C)COC(C(=O)/C=C/[C@@H]2[C@H]3CC(=O)O[C@H]3C[C@H]2OC(=O)c2ccccc2)OC1 | 141 °C
53 | N#CCCNC(=O)c1n[nH]cc1NC(=O)c1ccoc1 | 250 to 252 °C
54 | CC(=O)OCC1=C(C(=O)OC(C)(C)C)N2C(=O)C(NC(=O)Cn3ccnc3S(C)(=O)=O)C2SC1 (centres undefined) | 164 °C
55 | COc1ccc(-n2nc(Sc3ccccc3)c(C)c(C#N)c2=O)cc1 | 179 to 180 °C
56 | NC(=O)CCC(C(=O)O)N1C(=O)c2cccc([N+](=O)[O-])c2C1=O (centres undefined) | 182 to 184 °C
57 | COC(=O)C1CCC2C3CCC4CC=CCC4(C)C3C(=O)CC12C (centres undefined) | 169 to 175 °C
58 | N=C(N)Nc1nc(CCCCC(=N)NS(N)(=O)=O)cs1 | 156 to 157 °C
59 | Cc1ccccc1Nc1nc(N)nc2c(C)cccc12 | 118 to 120 °C
60 | CCCCCCCCCCCCCCCCOc1cccc(O)c1 | 58 to 59 °C
61 | O=c1ccnc(NCCN(Cc2ccccc2)c2ccccn2)[nH]1 | 187 to 190 °C
62 | CC(Sc1ccccc1)C1C=CCC1C(N)=O (centres undefined) | 109 °C
63 | NS(=O)(=O)c1c(Cl)cccc1Cn1cncn1 | 175 to 178 °C
64 | CCN(CC)C(=O)c1cc(C)nc([N+](=O)[O-])c1 | 90 to 91 °C
65 | CC(C)C(=O)NCCO | 54 to 57 °C
66 | O=C(O)C1(C(=O)Nc2cc(Cl)cc(Cl)c2)CCC1 | 159 to 160 °C
67 | Oc1ccc(CN2CCN(CCCN3CCN(Cc4ccc(O)cc4)CC3)CC2)cc1 | 197 to 201 °C
68 | O=C(NCC12CC3CC(CC(C3)C1)C2)c1cc(O)ccc1Cl | 263 to 264 °C
69 | Cc1sc(Cc2ccccc2)c(-c2ccc(-c3ccc(OS(=O)(=O)c4ccc(C(=O)O)c(O)c4)cc3)cc2)c1C | 173 to 175 °C
70 | O=C(NN=Cc1ccc(Cl)cc1)c1cccnc1 | 188 to 190 °C
71 | CCN(c1nc(C)cc(C(O)c2cnccc2-c2ccccc2OC)n1)c1ccc(C(C)C)cc1Br (centres undefined) | 68 to 70 °C
72 | CC(=O)OC(C)c1ccccc1CS(N)(=O)=O (centres undefined) | 135 to 140 °C
73 | N#CC1(Cc2ccccc2)CCN(Cc2ccccc2)CC1 | 92 °C
74 | COc1ccc(C=CC(=O)c2c(OC)cc(OC)cc2OP(=O)(O)O)cc1 | 71 to 73 °C

Reference: a melting point compilation (Tetko et al.; mined from patent text by program, amines drawn as free bases though some values may be those of a salt)
